Laboratory results as given in patent US8791108B2, “Inhibitors of human immunodeficiency virus replication” (priority 2011, dated 2014).

The compounds below were run on recombinant NL-Rluc virus (assay: Inhibition of HIV replication (NL-RLuc luciferase reporter virus, MT-2 cells)). Details: Human immunodeficiency virus 1, MT2, 120 h, read-out: Activity.
Format: cell-based

Question: `Cc1nc2cc(C(=O)NCc3ccc(Cl)cc3)nn2c(-c2cc(F)c3c(c2C)CCCO3)c1[C@H](OC(C)(C)C)C(=O)O` [Example 46, (2S)-2-(tert-butoxy)-2-(2((4-chlorobenzyl)carbamoyl)-7-(8-fluoro-5-methylchroman-6-yl)-5-methylpyrazolo[1,5-a]pyrimidin-6-yl)acetic acid] was tested. Which EC50 did it give?
Answer: < 0.1 µM

Question: How did the EC50 turn out when `Cc1nc2cc(C(=O)NCCNc3ccccc3)nn2c(-c2cc(F)c3c(c2C)CCCO3)c1[C@H](OC(C)(C)C)C(=O)O` [Example 47, (2S)-2-(tert-butoxy)-2-(7-(8-fluoro-5-methylchroman-6-yl)-5-methyl-2-((2-(phenylamino)ethyl)carbamoyl)pyrazolo[1,5-a]pyrimidin-6-yl)acetic acid] was run?
Answer: 0.1 to 1 µM

Question: How did the EC50 turn out when `Cc1nc2cc(C(=O)NCCc3ccccc3)nn2c(-c2cc(F)c3c(c2C)CCCO3)c1[C@H](OC(C)(C)C)C(=O)O` [Example 48, (2S)-2-(tert-butoxy)-2-(7-(8-fluoro-5-methylchroman-6-yl)-5-methyl-2-(phenethylcarbamoyl)pyrazolo[1,5-a]pyrimidin-6-yl)acetic acid] was run?
Answer: < 0.1 µM

Question: With `Cc1nc2cc(C(=O)NCCC(C)C)nn2c(-c2cc(F)c3c(c2C)CCCO3)c1[C@H](OC(C)(C)C)C(=O)O` [Example 49, (2S)-2-(tert-butoxy)-2-(7-(8-fluoro-5-methylchroman-6-yl)-2-(isopentylcarbamoyl)-5-methylpyrazolo[1,5-a]pyrimidin-6-yl)acetic acid] as the compound, how does the EC50 read?
Answer: < 0.1 µM

Question: How did the EC50 turn out when `Cc1nc2cc(C(=O)NCCCc3ccccc3)nn2c(-c2cc(F)c3c(c2C)CCCO3)c1[C@H](OC(C)(C)C)C(=O)O` [Example 50] was run?
Answer: < 0.1 µM

Question: Which EC50 does the source give for `Cc1nc2cc(C(=O)NCCCn3ccnc3)nn2c(-c2cc(F)c3c(c2C)CCCO3)c1[C@H](OC(C)(C)C)C(=O)O` [Example 51] here?
Answer: > 1 µM

Question: How did the EC50 turn out when `Cc1nc2cc(C(=O)NCc3ccc(N(C)C)cc3)nn2c(-c2cc(F)c3c(c2C)CCCO3)c1[C@H](OC(C)(C)C)C(=O)O` [Example 52, (2S)-2-(tert-butoxy)-2-(2-((4-(dimethylamino)benzyl)carbamoyl)-7-(8-fluoro-5-methylchroman-6-yl)-5-methylpyrazolo[1,5-a]pyrimidin-6-yl)acetic acid] was run?
Answer: < 0.1 µM

Question: Which EC50 does the source give for `Cc1nc2cc(C(=O)NCc3ccc(S(N)(=O)=O)cc3)nn2c(-c2cc(F)c3c(c2C)CCCO3)c1[C@H](OC(C)(C)C)C(=O)O` [Example 53, (2S)-2-(tert-butoxy)-2-(7-(8-fluoro-5-methylchroman-6-yl)-5-methyl-2-((4-sulfamoylbenzyl)carbamoyl)pyrazolo[1,5-a]pyrimidin-6-yl)acetic acid] here?
Answer: > 1 µM

Question: `Cc1nc2cc(C(=O)NCc3cccc(Cl)c3)nn2c(-c2cc(F)c3c(c2C)CCCO3)c1[C@H](OC(C)(C)C)C(=O)O` [Example 54, (2S)-2-(tert-butoxy)-2-(2((3-chlorobenzyl)carbamoyl)-7-(8-fluoro-5-methylchroman-6-yl)-5-methylpyrazolo[1,5-a]pyrimidin-6-yl)acetic acid] was tested. Which EC50 did it give?
Answer: < 0.1 µM

Question: For `Cc1nc2cc(C(=O)NCCOc3ccccc3)nn2c(-c2cc(F)c3c(c2C)CCCO3)c1[C@H](OC(C)(C)C)C(=O)O` [Example 55, (2S)-2-(tert-butoxy)-2-(7-(8-fluoro-5-methylchroman-6-yl)-5-methyl-2-((2-phenoxyethyl)carbamoyl)pyrazolo[1,5-a]pyrimidin-6-yl)acetic acid], which EC50 is on record?
Answer: < 0.1 µM

Question: For `Cc1nc2cc(C(=O)N[C@H]3C[C@@H]3c3ccccc3)nn2c(-c2cc(F)c3c(c2C)CCCO3)c1[C@H](OC(C)(C)C)C(=O)O` [Example 56, (2S)-2-(tert-butoxy)-2-(7-(8-fluoro-5-methylchroman-6-yl)-5-methyl-2-(((1S,2R)-2-phenylcyclopropyl)carbamoyl)pyrazolo[1,5-a]pyrimidin-6-yl)acetic acid], which EC50 is on record?
Answer: < 0.1 µM

Question: With `Cc1nc2cc(C(=O)NCCc3ccc(F)cc3)nn2c(-c2cc(F)c3c(c2C)CCCO3)c1[C@H](OC(C)(C)C)C(=O)O` [Example 57, (2S)-2-(tert-butoxy)-2-(7-(8-fluoro-5-methylchroman-6-yl)-2-((4-fluorophenethyl)carbamoyl)-5-methylpyrazolo[1,5-a]pyrimidin-6-yl)acetic acid] as the compound, how does the EC50 read?
Answer: < 0.1 µM

Question: Which EC50 does the source give for `Cc1nc2cc(C(=O)NCC3CCN(C(=O)C4CC4)CC3)nn2c(-c2cc(F)c3c(c2C)CCCO3)c1[C@H](OC(C)(C)C)C(=O)O` [Example 58, (2S)-2-(tert-butoxy)-2-(2-(((1-(cyclopropanecarbonyl)piperidin-4-yl)methyl)carbamoyl)-7-(8-fluoro-5-methylchroman-6-yl)-5-methylpyrazolo[1,5-a]pyrimidin-6-yl)acetic acid] here?
Answer: > 1 µM

Question: `Cc1nc2cc(C(=O)NCC3CCN(C(=O)OC(C)(C)C)CC3)nn2c(-c2cc(F)c3c(c2C)CCCO3)c1[C@H](OC(C)(C)C)C(=O)O` [Example 59, (2S)-2-(tert-butoxy)-2-(2-(((1-(tert-butoxycarbonyl)piperidin-4-yl)methyl)carbamoyl)-7-(8-fluoro-5-methylchroman-6-yl)-5-methylpyrazolo[1,5-a]pyrimidin-6-yl)acetic acid] was tested. Which EC50 did it give?
Answer: 0.1 to 1 µM

Question: Which EC50 does the source give for `Cc1ccc(CNC(=O)c2cc3nc(C)c([C@H](OC(C)(C)C)C(=O)O)c(-c4cc(F)c5c(c4C)CCCO5)n3n2)cc1F` [Example 60, (2S)-2-(tert-butoxy)-2-(2-((3-fluoro-4-methylbenzyl)carbamoyl)-7-(8-fluoro-5-methylchroman-6-yl)-5-methylpyrazolo[1,5-a]pyrimidin-6-yl)acetic acid] here?
Answer: < 0.1 µM

Question: Which EC50 does the source give for `Cc1nc2cc(C(=O)NCc3cccnc3)nn2c(-c2cc(F)c3c(c2C)CCCO3)c1[C@H](OC(C)(C)C)C(=O)O` [Example 61, (2S)-2-(tert-butoxy)-2-(7-(8-fluoro-5-methylchroman-6-yl)-5-methyl-2-((pyridin-3-ylmethyl)carbamoyl)pyrazolo[1,5-a]pyrimidin-6-yl)acetic acid] here?
Answer: > 1 µM

Question: `Cc1nc2cc(C(=O)NCCC(C)(C)C)nn2c(-c2cc(F)c3c(c2C)CCCO3)c1[C@H](OC(C)(C)C)C(=O)O` [Example 62, (2S)-2-(tert-butoxy)-2-(2-((3,3-dimethylbutyl)carbamoyl)-7-(8-fluoro-5-methylchroman-6-yl)-5-methylpyrazolo[1,5-a]pyrimidin-6-yl)acetic acid] was tested. Which EC50 did it give?
Answer: < 0.1 µM

Question: `Cc1nc2cc(C(=O)NCc3ccc(F)cc3O)nn2c(-c2cc(F)c3c(c2C)CCCO3)c1[C@H](OC(C)(C)C)C(=O)O` [Example 63, (2S)-2-(tert-butoxy)-2-(2-((4-fluoro-2-hydroxybenzyl)carbamoyl)-7-(8-fluoro-5-methylchroman-6-yl)-5-methylpyrazolo[1,4-a]pyrimidin-6yl)acetic acid] was tested. Which EC50 did it give?
Answer: < 0.1 µM

Question: With `Cc1nc2cc(C(=O)NCc3cccc(C(F)(F)F)c3)nn2c(-c2cc(F)c3c(c2C)CCCO3)c1[C@H](OC(C)(C)C)C(=O)O` [Example 64] as the compound, how does the EC50 read?
Answer: < 0.1 µM

Question: Which EC50 does the source give for `COc1ccc(CCNC(=O)c2cc3nc(C)c([C@H](OC(C)(C)C)C(=O)O)c(-c4cc(F)c5c(c4C)CCCO5)n3n2)cc1` [Example 65, (2S)-2-(tert-butoxy)-2-(7-(8-fluoro-5-methylchroman-6-yl)-2-((4-methoxyphenethyl)carbamoyl)-5-methylpyrazolo[1,5-a]pyrimidin-6-yl)acetic acid] here?
Answer: < 0.1 µM

Question: Which EC50 does the source give for `Cc1nc2cc(C(=O)NCc3ccc(C(F)(F)F)cc3)nn2c(-c2cc(F)c3c(c2C)CCCO3)c1[C@H](OC(C)(C)C)C(=O)O` [Example 66, (2S)-2-(tert-butoxy)-2-(7-(8-fluoro-5-methylchroman-6-yl)-5-methyl-2-((4-(trifluoromethyl)benzyl)carbamoyl)pyrazolo[1,5-a]pyrimidin-6-yl)acetic acid] here?
Answer: < 0.1 µM

Question: With `Cc1nc2cc(C(=O)NCc3cccc(OC(F)(F)F)c3)nn2c(-c2cc(F)c3c(c2C)CCCO3)c1[C@H](OC(C)(C)C)C(=O)O` [Example 67] as the compound, how does the EC50 read?
Answer: < 0.1 µM

Question: How did the EC50 turn out when `Cc1nc2cc(C(=O)NCc3ccc(Oc4ccccc4)cc3)nn2c(-c2cc(F)c3c(c2C)CCCO3)c1[C@H](OC(C)(C)C)C(=O)O` [Example 68, (2S)-2-(tert-butoxy)-2-(7-(8-fluoro-5-methylchroman-6-yl)-5-methyl-2-((4-phenoxybenzyl)carbamoyl)pyrazolo[1,5-a]pyrimidin-6-yl)acetic acid] was run?
Answer: < 0.1 µM

Question: For `Cc1nc2cc(C(=O)NCc3cccc(-c4ccccc4)c3)nn2c(-c2cc(F)c3c(c2C)CCCO3)c1[C@H](OC(C)(C)C)C(=O)O` [Example 69, (2S)-2-(2-(([1,1′-biphenyl]-3-ylmethyl)carbamoyl)-7-(8-fluoro-5-methylchroman-6-yl)-5-methylpyrazolo[1,5-a]pyrimidin-6-yl)-2-(tert-butoxy)acetic acid], which EC50 is on record?
Answer: < 0.1 µM

Question: Which EC50 does the source give for `Cc1nc2cc(C(=O)NCc3ccc(-c4ccccc4)cc3)nn2c(-c2cc(F)c3c(c2C)CCCO3)c1[C@H](OC(C)(C)C)C(=O)O` [Example 70, (2S)-2-(2-(([1,1′-biphenyl]-4-ylmethyl)carbamoyl)-7-(8-fluoro-5-methylchroman-6-yl)-5-methylpyrazolo[1,5-a]pyrimidin-6-yl)-2-(tert-butoxy)acetic acid] here?
Answer: < 0.1 µM

Question: For `COc1cccc(CNC(=O)c2cc3nc(C)c([C@H](OC(C)(C)C)C(=O)O)c(-c4cc(F)c5c(c4C)CCCO5)n3n2)c1` [Example 71], which EC50 is on record?
Answer: < 0.1 µM

Question: For `Cc1nc2cc(C(=O)NCCC3CCN(Cc4ccccc4)CC3)nn2c(-c2cc(F)c3c(c2C)CCCO3)c1[C@H](OC(C)(C)C)C(=O)O` [Example 72, (2S)-2-(2-((2-(1-benzylpiperidin-4-yl)ethyl)carbamoyl)-7-(8-fluoro-5-methylchroman-6-yl)-5-methylpyrazolo[1,5-a]pyrimidin-6-yl)-2-(tert-butoxy)acetic acid], which EC50 is on record?
Answer: 0.1 to 1 µM

Question: How did the EC50 turn out when `Cc1nc2cc(C(=O)Nc3ccc(C4CCCCC4)cc3)nn2c(-c2cc(F)c3c(c2C)CCCO3)c1[C@H](OC(C)(C)C)C(=O)O` [Example 73, (2S)-2-(tert-butoxy)-2-(2-((4-cyclohexylphenyl)carbamoyl)-7-(8-fluoro-5-methylchroman-6-yl)-5-methylpyrazolo[1,5-a]pyrimidin-6-yl)acetic acid] was run?
Answer: < 0.1 µM

Same assay, conditions: Human immunodeficiency virus 1, MT2, 120 h, read-out: EC50 μM

Question: For `Cc1nc2cc(C(=O)NCCNc3ccccc3)nn2c(-c2cc(F)c3c(c2C)CCCO3)c1[C@H](OC(C)(C)C)C(=O)O` [Example 47, (2S)-2-(tert-butoxy)-2-(7-(8-fluoro-5-methylchroman-6-yl)-5-methyl-2-((2-(phenylamino)ethyl)carbamoyl)pyrazolo[1,5-a]pyrimidin-6-yl)acetic acid], which EC50 is on record?
Answer: 0.281 µM

Question: `Cc1nc2cc(C(=O)NCc3ccc(S(N)(=O)=O)cc3)nn2c(-c2cc(F)c3c(c2C)CCCO3)c1[C@H](OC(C)(C)C)C(=O)O` [Example 53, (2S)-2-(tert-butoxy)-2-(7-(8-fluoro-5-methylchroman-6-yl)-5-methyl-2-((4-sulfamoylbenzyl)carbamoyl)pyrazolo[1,5-a]pyrimidin-6-yl)acetic acid] was tested. Which EC50 did it give?
Answer: 3.19 µM

Question: `Cc1nc2cc(C(=O)NCCC(C)(C)C)nn2c(-c2cc(F)c3c(c2C)CCCO3)c1[C@H](OC(C)(C)C)C(=O)O` [Example 62, (2S)-2-(tert-butoxy)-2-(2-((3,3-dimethylbutyl)carbamoyl)-7-(8-fluoro-5-methylchroman-6-yl)-5-methylpyrazolo[1,5-a]pyrimidin-6-yl)acetic acid] was tested. Which EC50 did it give?
Answer: 0.013 µM

Question: `Cc1nc2cc(C(=O)NCc3cccc(OC(F)(F)F)c3)nn2c(-c2cc(F)c3c(c2C)CCCO3)c1[C@H](OC(C)(C)C)C(=O)O` [Example 67] was tested. Which EC50 did it give?
Answer: 0.009 µM

Question: Which EC50 does the source give for `Cc1nc2cc(C(=O)NCCC3CCN(Cc4ccccc4)CC3)nn2c(-c2cc(F)c3c(c2C)CCCO3)c1[C@H](OC(C)(C)C)C(=O)O` [Example 72, (2S)-2-(2-((2-(1-benzylpiperidin-4-yl)ethyl)carbamoyl)-7-(8-fluoro-5-methylchroman-6-yl)-5-methylpyrazolo[1,5-a]pyrimidin-6-yl)-2-(tert-butoxy)acetic acid] here?
Answer: 0.668 µM
